Assay results reported in patent US7157430B2, “(Substituted)acyl dipeptidyl inhibitors of the ICE/CED-3 family of cysteine proteases” (Idun Pharmaceuticals, Inc., priority 1998, dated 2007).

Experiments:
Type in all cases: biochemical
Conditions in all cases: continuous assay 60 min, reaction initiated by adding enzyme
MCH-5 = MCH-5 (Homo sapiens, UniProt Q14790); test: Dissociation constant Ki and irreversible rate constant k3 for irreversible inhibitors, Mch5
From the text: (§1) For the irreversible inhibition of a ICE/ced-3 Family Protease enzyme with a competitive irreversible inhibitor; using the model represented by the following formulas: […]
(§2) The product formation at time t may be expressed as:
(§3) [formula] where E, I, EI and E-I denote the active enzyme, inhibitor, non-covalent enzyme-inhibitor complex and covalent enzyme-inhibitor adduct, respectively. The Ki value is the overall dissociation constant of the reversible binding steps, and k3 is the irreversible rate constant. The [S] and Ks values are the substate concentration and dissociation constant of the substrate bound to the enzyme, respectively. [E]^T is the total enzyme concentration.
(§4) The above equations were used to determine the Ki and k3 values of a given inhibitor bound to a ICE/ced-3 family protease. Thus, a continuous assay was run for sixty minutes at various concentrations of the inhibitor and the substrate. The assay was formulated essentially the same as described above for generating the data in Table 1, except that the reaction was initiated by adding the enzyme to the substrate-inhibitor mixture. The Ki and k3 values were obtained by simulating the product AMC formation as a function of time according to Equation 1.
(§5) The reference compound for this assay was Cbz-ValAlaAsp-CH2F and the values are denoted in Table 2 as “Reference”. The Ki values in Table 2 are in micromolar (μM). The k3/Ki values are in moles^−1 seconds^−1 (M^−1s^−1).

MCH-2 = biological target: T1, MCH-2 (Homo sapiens, UniProt P55212); test: Dissociation constant Ki and irreversible rate constant k3 for irreversible inhibitors, Mch2
T1 sequence (P55212 24-179 limits assumed): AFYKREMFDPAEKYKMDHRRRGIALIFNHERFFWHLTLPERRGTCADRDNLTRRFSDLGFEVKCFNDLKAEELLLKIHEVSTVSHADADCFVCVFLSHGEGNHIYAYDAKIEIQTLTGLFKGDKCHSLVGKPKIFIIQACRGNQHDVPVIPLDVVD
T1 sequence (P55212 194-293 limits assumed): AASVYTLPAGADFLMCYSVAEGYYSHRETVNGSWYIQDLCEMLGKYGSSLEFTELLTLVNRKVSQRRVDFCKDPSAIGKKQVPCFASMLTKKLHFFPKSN
From the text: as §1, §2, §3, §4, §5

CPP32 = biological target: T2, CPP32 (Homo sapiens, UniProt P42574); test: Dissociation constant Ki and irreversible rate constant k3 for irreversible inhibitors, CPP32
T2 sequence (P42574 29-175 limits assumed): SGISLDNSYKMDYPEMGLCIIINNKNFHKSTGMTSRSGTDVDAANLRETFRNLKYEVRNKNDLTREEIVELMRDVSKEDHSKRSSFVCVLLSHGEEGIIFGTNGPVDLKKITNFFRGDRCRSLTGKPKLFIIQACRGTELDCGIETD
T2 sequence (P42574 176-277 limits assumed): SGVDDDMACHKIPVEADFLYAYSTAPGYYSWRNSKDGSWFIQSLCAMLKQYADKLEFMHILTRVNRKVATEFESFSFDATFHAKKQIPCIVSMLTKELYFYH
From the text: as §1, §2, §3, §4, §5

mICE = biological target: T3, mICE (Mus musculus, UniProt P29452); test: Dissociation constant Ki and irreversible rate constant k3 for irreversible inhibitors, ICE
T3 sequence (P29452 123-296 limits assumed): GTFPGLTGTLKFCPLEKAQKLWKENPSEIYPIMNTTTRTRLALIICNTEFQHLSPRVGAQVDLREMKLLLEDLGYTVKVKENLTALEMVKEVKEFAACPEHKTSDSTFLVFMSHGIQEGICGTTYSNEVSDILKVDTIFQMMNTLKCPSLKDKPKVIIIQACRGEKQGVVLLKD
T3 sequence (P29452 315-402 limits assumed): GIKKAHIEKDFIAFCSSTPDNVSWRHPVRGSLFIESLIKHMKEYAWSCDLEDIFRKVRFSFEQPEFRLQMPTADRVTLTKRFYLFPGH
From the text: as §1, §2, §3, §4, §5

Sequence of MCH-5 (Q14790 217-374 limits assumed, species assumed): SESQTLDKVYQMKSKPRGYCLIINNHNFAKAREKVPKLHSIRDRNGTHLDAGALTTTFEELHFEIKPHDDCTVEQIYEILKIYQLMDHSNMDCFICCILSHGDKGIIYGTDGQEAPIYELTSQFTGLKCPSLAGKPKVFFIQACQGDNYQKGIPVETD
Sequence of MCH-5 (Q14790 385-479 limits assumed, species assumed): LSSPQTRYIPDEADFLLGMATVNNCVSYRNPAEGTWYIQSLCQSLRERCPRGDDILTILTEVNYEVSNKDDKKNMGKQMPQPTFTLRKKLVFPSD

SMILES | Ki (MCH-5) [nM] | MCH-5 k3/Ki (MCH-5) | Ki (MCH-2) [nM] | MCH-2 k3/Ki (MCH-2) | CPP32 k3/Ki (CPP32) | Ki (CPP32) [nM] | Ki (mICE) [nM] | mICE k3/Ki (mICE)
Cc1nnc(SCC(=O)[C@H](CC(=O)O)NC(=O)[C@@H](NC(=O)COc2cccc3ccccc23)C(C)C)s1 [Example 128] | 4480 | 0 M⁻¹ s⁻¹ | 2410 | 83 M⁻¹ s⁻¹ | 5,240 M^−1s^−1 | 254 | 213 | 5,480 M^−1s^−1
CC(C)[C@H](NC(=O)COc1ccccc1-c1ccccc1)C(=O)N[C@@H](CC(=O)O)C(=O)COc1c(F)cc(F)cc1F [Example 151] | 270 | 5,900 M^−1s^−1 | 23 | 88,100 M^−1s^−1 | 257,000 M^−1s^−1 | 32 | 349 | 29,600 M^−1s^−1
CC(C)[C@H](NC(=O)COc1ccccc1-c1ccccc1)C(=O)N[C@@H](CC(=O)O)C(=O)COc1c(F)c(F)cc(F)c1F [Example 152] | 66 | 16,600 M^−1s^−1 | 11 | 191,000 M^−1s^−1 | 241,000 M^−1s^−1 | 29 | 191 | 29,300 M^−1s^−1
CC(C)[C@H](NC(=O)COc1ccc2ccccc2c1)C(=O)N[C@@H](CC(=O)O)C(=O)COC(=O)c1c(Cl)cccc1Cl [Example 155] | 136 | 7,910 M^−1s^−1 | 15 | 166,000 M^−1s^−1 | 206,000 M^−1s^−1 | 47 | 168 | 59,800 M^−1s^−1
CC(C)[C@H](NC(=O)COc1ccc2ccccc2c1)C(=O)N[C@@H](CC(=O)O)C(=O)COc1c(F)c(F)cc(F)c1F [Example 157] | 72 | 11,600 M^−1s^−1 | 22 | 72,000 M^−1s^−1 | 53,300 M^−1s^−1 | 257 | 225 | 39,300 M^−1s^−1
CC(C)[C@H](NC(=O)CCOc1cccc2ccccc12)C(=O)N[C@@H](CC(=O)O)C(=O)COC(=O)c1c(Cl)cccc1Cl [Example 158] | 264 | 1,610 M^−1s^−1 | 22 | 103,000 M^−1s^−1 | 98,200 M^−1s^−1 | 109 | 168 | 34,300 M^−1s^−1
CC(C)[C@H](NC(=O)CCOc1cccc2ccccc12)C(=O)N[C@@H](CC(=O)O)C(=O)COc1cc(C(F)(F)F)n(-c2ccccc2)n1 [Example 159] | 10700 | 86 M⁻¹ s⁻¹ | 113 | 15,000 M^−1s^−1 | 11,700 M^−1s^−1 | 1180 | 1370 | 4,580 M^−1s^−1
CC(C)C[C@H](NC(=O)COc1ccccc1-c1ccccc1)C(=O)N[C@@H](CC(=O)O)C(=O)COC(=O)c1c(Cl)cccc1Cl [Example 162] | 128 | 5,290 M^−1s^−1 | 29 | 104,000 M^−1s^−1 | 246,000 M^−1s^−1 | 44 | 319 | 22,200 M^−1s^−1
CC(C)C[C@H](NC(=O)COc1ccccc1-c1ccccc1)C(=O)N[C@@H](CC(=O)O)C(=O)COc1c(F)cc(F)cc1F [Example 163] | 252 | 7,960 M^−1s^−1 | 12 | 110,000 M^−1s^−1 | 308,000 M^−1s^−1 | 23 | 415 | 37,800 M^−1s^−1

Further lines, results first:

Ki (MCH-5) [nM] | MCH-5 k3/Ki (MCH-5) | Ki (MCH-2) [nM] | MCH-2 k3/Ki (MCH-2) | CPP32 k3/Ki (CPP32) | Ki (CPP32) [nM] | Ki (mICE) [nM] | mICE k3/Ki (mICE) | SMILES
276 | 3,200 M^−1s^−1 | 120 | 5,150 M^−1s^−1 | 114,000 M^−1s^−1 | 47 | 242 | 24,800 M^−1s^−1 | CC(C)[C@H](NC(=O)COc1cccc2ccccc12)C(=O)N[C@@H](CC(=O)O)C(=O)COc1ccnc(C(F)(F)F)n1 [Example 121]
37 | 14,500 M^−1s^−1 | 28 | 8,500 M^−1s^−1 | 121,000 M^−1s^−1 | 50 | 205 | 28,300 M^−1s^−1 | CC(C)[C@H](NC(=O)COc1cccc2ccccc12)C(=O)N[C@@H](CC(=O)O)C(=O)COc1cc(C(F)(F)F)nn1-c1ccccc1 [Example 143]
155 | 6,340 M^−1s^−1 | 70 | 5,800 M^−1s^−1 | 144,000 M^−1s^−1 | 54 | 126 | 42,500 M^−1s^−1 | COC(=O)c1cc(OCC(=O)[C@H](CC(=O)O)NC(=O)[C@@H](NC(=O)COc2cccc3ccccc23)C(C)C)no1 [Example 144]
127 | 9,340 M^−1s^−1 | 9 | 400,000 M^−1s^−1 | 698,000 M^−1s^−1 | 16 | 263 | 43,700 M^−1s^−1 | CC(C)[C@H](NC(=O)COc1ccccc1-c1ccccc1)C(=O)N[C@@H](CC(=O)O)C(=O)COC(=O)c1c(Cl)cccc1Cl [Example 150]
293 | 3,990 M^−1s^−1 | 52 | 14,900 M^−1s^−1 | 49,700 M^−1s^−1 | 148 | 438 | 20,200 M^−1s^−1 | CC(C)[C@H](NC(=O)COc1ccc2ccccc2c1)C(=O)N[C@@H](CC(=O)O)C(=O)COc1c(F)cc(F)cc1F [Example 156]
351 | 3,680 M^−1s^−1 | 93 | 36,600 M^−1s^−1 | 33,000 M^−1s^−1 | 132 | 1180 | 11,400 M^−1s^−1 | CC(C)[C@H](NC(=O)CCOc1ccccc1)C(=O)N[C@@H](CC(=O)O)C(=O)COc1c(F)c(F)cc(F)c1F [Example 160, (3S)-3-[N-(3′-(Phenoxy)Propionyl)Valinyl]Amino-5-(2,3,5,6-Tetrafluorophenoxy)-4-Oxopentanoic Acid]
105 | 15,200 M^−1s^−1 | 30 | 149,000 M^−1s^−1 | 319,000 M^−1s^−1 | 19 | 98 | 86,400 M^−1s^−1 | CC(C)C[C@H](NC(=O)COc1ccccc1-c1ccccc1)C(=O)N[C@@H](CC(=O)O)C(=O)COP(=O)(c1ccccc1)c1ccccc1 [Example 161]
223 | 6,190 M^−1s^−1 | 23 | 91,700 M^−1s^−1 | 137,000 M^−1s^−1 | 63 | 467 | 24,000 M^−1s^−1 | CC(C)C[C@H](NC(=O)COc1ccccc1-c1ccccc1)C(=O)N[C@@H](CC(=O)O)C(=O)COc1c(F)c(F)cc(F)c1F [Example 164]
